“Also recorded” adds a separate entry of the source.
Tested on: U87MG(Δ2-7) (brain cancer cell line) tumours
Assay: Tumor xenograft study with U87MG(Δ2-7)
Format: in vivo, Balb/c nu/nu mice
Description: FIG. 8: U87MG(Δ2-7) tumor growth in nude mice. Tumor diameters were measured with external callipers every three days and tumor volume calculated with the formula: π/6×(L×W2).
Mice: Balb/c nu/nu male; 8 controls and 8 treated.
Cells inoculated: U87MG(Δ2-7) at 2.13×10^6 cells/tumour; two tumours per mouse.
Dose: Compound 2 at 20 mg/kg=100 μl of 4 mg/ml in water for injection per 20 g mouse. Control mice were injected with 100 μl water for injection.
Treatment and monitoring: Treatment commenced at Day 5 after inoculation. Mice were injected SC in abdomen three times per week (Mon, Wed, Fri), on alternating sides. Mice were weighed, tumour diameters measured in two dimensions and the health of the mice was monitored.
After mice were sacrificed: the tumours were dissected and weighed; spleens and livers were also weighed.

[1] = 20 mg/kg SC three times per week, post mortem

Compound: COc1ccc(CNc2nc(NCc3ccc(CN)cc3)nc(NN3CC(=O)NC3=O)n2)cc1 (single isomer, unassigned) [Compound 2, 1-[4-(4-aminomethyl-benzylamino)-6-(4-methoxybenzylamino)-{1,3,5}-triazin-2-yl-amino]-imidazolidine-2,4-dione]
- Tumour growth (tumour volume) (20 mg/kg SC three times per week from day 5, terminated at 14 days): significant difference in volume between control and treated tumours; also recorded: reduced the growth of the tumours
- Liver or spleen weights vs vehicle control [1]: no significant difference
- Tumor weight [1]: greatly reduced
